Source: the NIST ThermoML archive (doi:10.1021/acs.jced.9b00449)

Assay: mn = molality of the nth substance listed, in mol/kg
Conditions: 100 kPa, Liquid; for kinematic viscosity: Capillary tube (Ostwald / Ubbelohde) method; for mass density: Pycnometric method

[K+].[O]=[V](=[O])[O-] [potassium vanadate] + O
Conditions | kinematic viscosity [m2/s] | mass density [kg/m3]
293.15 K, m1 = 0.615 | 1.03e-06 | 1063
303.15 K, m1 = 0.874 | 8.5e-07 | 1083
313.15 K, m1 = 1.223 | 7.51e-07 | 1126
323.15 K, m1 = 1.884 | 7.42e-07 | 1171
